The target in the test is T1, FIH^WT (Homo sapiens, UniProt Q9NWT6).
T1 construct: pET28a vectors encoding for full-length FIH with an N-terminal His6 tag; His6 (N); host or cells: Escherichia coli BL21
The test is described as follows: Affinity-based fluorescence polarization (FP) assay with FIH WT, without and with 365 nm irradiation. Particulars: read-out: Binding affinity to FIH^WT: Ki. The text has this: We also performed a reported affinity-based fluorescence polarization (FP) assay (Figure S6) , under light activation to measure the binding affinity of NBA-ZG-2291 to FIH (Figure A). […] These observations are consistent with the intact protein MS analyzes. We also evaluated the binding affinities of two negative controls to FIH, which were designed not to covalently react with Lys106.
4 (A) Light-induced click conjugation between NBA-ZG-2291 and FIH protein. (B) Light-induced binding affinity of NBA-ZG-2291 to FIH^ WT . (C) Light-induced binding affinity of NBA-ZG-2291 to FIH^ K106A . […] TEXT PRINTED IN THE PICTURE: (B) NBA-ZG-2291: Binding affinity to FIH^WT: Ki (nM): 414 ± 14 (Irradtion time (min): 0); Binding affinity to FIH^WT: Ki (nM): 74.1 ± 1.6 (Irradtion time (min): 15); Binding affinity to FIH^WT: Ki (nM): 46.7 ± 1.4 (Irradtion time (min): 30); Binding affinity to FIH^WT: Ki (nM): 33.2 ± 0.6 (Irradtion time (min): 60); Binding affinity to FIH^WT: Ki (nM): 30.2 ± 2.0 (Irradtion time (min): 90); Binding affinity to FIH^WT: Ki (nM): 32.1 ± 0.7 (Irradtion time (min): 120) | (B) Neg-1: Binding affinity to FIH^WT: Ki (nM): 423 ± 7 (Irradtion time (min): 0); Binding affinity to FIH^WT: Ki (nM): 408 ± 30 (Irradtion time (min): 15); Binding affinity to FIH^WT: Ki (nM): 459 ± 32 (Irradtion time (min): 30); Binding affinity to FIH^WT: Ki (nM): 427 ± 17 (Irradtion time (min): 60); Binding affinity to FIH^WT: Ki (nM): 396 ± 29 (Irradtion time (min): 90); Binding affinity to FIH^WT: Ki (nM): 428 ± 15 (Irradtion time (min): 120) | (B) Neg-2: Binding affinity to FIH^WT: Ki (nM): 742 ± 65 (Irradtion time (min): 0); Binding affinity to FIH^WT: Ki (nM): 799 ± 69 (Irradtion time (min): 15); Binding affinity to FIH^WT: Ki (nM): 758 ± 13 (Irradtion time (min): 30); Binding affinity to FIH^WT: Ki (nM): 744 ± 30 (Irradtion time (min): 60); Binding affinity to FIH^WT: Ki (nM): 788 ± 36 (Irradtion time (min): 90); Binding affinity to FIH^WT: Ki (nM): 786 ± 35 (Irradtion time (min): 120) | (C) NBA-ZG-2291: Binding affinity to FIH^K106A: Ki (nM): 442 ± 12 (Irradtion time (min): 0); Binding affinity to FIH^K106A: Ki (nM): 427 ± 22 (Irradtion time (min): 15); Binding affinity to FIH^K106A: Ki (nM): 426 ± 7 (Irradtion time (min): 30); Binding affinity to FIH^K106A: Ki (nM): 420 ± 11 (Irradtion time (min): 60); Binding affinity to FIH^K106A: Ki (nM): 418 ± 5 (Irradtion time (min): 90); Binding affinity to FIH^K106A: Ki (nM): 424 ± 12 (Irradtion time (min): 120) | (C) Neg-1: Binding affinity to FIH^K106A: Ki (nM): 271 ± 14 (Irradtion time (min): 0); Binding affinity to FIH^K106A: Ki (nM): 275 ± 15 (Irradtion time (min): 15); Binding affinity to FIH^K106A: Ki (nM): 268 ± 25 (Irradtion time (min): 30); Binding affinity to FIH^K106A: Ki (nM): 266 ± 22 (Irradtion time (min): 60); Binding affinity to FIH^K106A: Ki (nM): 264 ± 41 (Irradtion time (min): 90); Binding affinity to FIH^K106A: Ki (nM): 270 ± 3 (Irradtion time (min): 120) | (C) Neg-2: Binding affinity to FIH^K106A: Ki (nM): 567 ± 37 (Irradtion time (min): 0); Binding affinity to FIH^K106A: Ki (nM): 548 ± 61 (Irradtion time (min): 15); Binding affinity to FIH^K106A: Ki (nM): 521 ± 50 (Irradtion time (min): 30); Binding affinity to FIH^K106A: Ki (nM): 627 ± 17 (Irradtion time (min): 60); Binding affinity to FIH^K106A: Ki (nM): 565 ± 10 (Irradtion time (min): 90); Binding affinity to FIH^K106A: Ki (nM): 552 ± 38 (Irradtion time (min): 120) […]
3. Experimental procedures
3.1 Fluorescence polarization (FP) assays1 with FIHWT and FIHK106A pET28a vectors encoding for full-length FIH with an N-terminal His6 tag or for FIH (K106A) with an N-terminal His6 tag were purchased from Nanjing Zoonbio Biotechnology. Both the FIHWT and FIHK106A protein were expressed from the respective plasmid in Escherichia coli BL21 at 20 °C for 16 h. E. coli cells were lysed and the lysate were clarified by centrifugation. His6- […]

Values joined by “and” are separate entries in the source; they are usually repeats but may differ in a detail not shown here. Equal entries are not always repeated. Where two headings read alike, the source gives them in different places.

T1 sequence (Q9NWT6 whole entry): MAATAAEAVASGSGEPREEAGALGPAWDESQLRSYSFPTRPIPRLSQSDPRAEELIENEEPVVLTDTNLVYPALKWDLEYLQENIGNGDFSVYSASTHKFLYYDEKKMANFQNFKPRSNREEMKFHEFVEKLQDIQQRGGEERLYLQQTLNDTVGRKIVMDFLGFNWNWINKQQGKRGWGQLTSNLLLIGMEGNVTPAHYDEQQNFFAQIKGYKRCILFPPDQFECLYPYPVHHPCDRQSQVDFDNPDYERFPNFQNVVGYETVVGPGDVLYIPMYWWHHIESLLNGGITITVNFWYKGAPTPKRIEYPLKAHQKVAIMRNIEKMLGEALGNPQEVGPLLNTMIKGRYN

Usually Ki stands for a dissociation constant, usually derived from enzyme kinetics or from competition with a known ligand. For `O=C(O)CNC(=O)c1ncc(-c2cc(-c3ccc(CO)c([N+](=O)[O-])c3)no2)cc1O` [NBA-ZG-2291], the Ki was 414 ± 14 nM (irradiation time 0 min); 74.1 ± 1.6 nM (irradiation time 15 min); ~40 nM and 46.7 nM (irradiation time 30 min); 33.2 ± 0.6 nM (irradiation time 60 min); 30.2 ± 2 nM (irradiation time 90 min); 32.1 ± 0.7 nM (irradiation time 120 min).

These data come from publication PMC12123601, “Light-Induced, Lysine-Targeting Irreversible Covalent Inhibition of the Human Oxygen Sensing Hydroxylase Factor Inhibiting HIF (FIH)” (Journal of the American Chemical Society, 2025).
